Data reported in US9776990B2, “Isoindolone derivatives” (AbbVie Inc., priority 2012, dated 2017).
Marks after values point to notes of the source that are not given here.

Assays:
[1] = system: A-375; assay: Proliferation panel assay, A-375; type: cell-based; details: Homo sapiens, 120 h; Melanoma, A-375, 5 days; read-out: Cellular Proliferation EC50
Method: (§1) The impact of compounds of the Examples on cancer cell proliferation was determined using the breast cancer cell line MX-1 (ATCC) in a 3-day proliferation assay. MX-1 cells were maintained in RPMI supplemented with 10% FBS at 37 C.° and an atmosphere of 5% CO2. For compound testing, MX-1 cells were plated in 96-well black bottom plates at a density of 5000 cells/well in 90 μl of culture media and incubated at 37° overnight to allow cell adhesion and spreading. Compound dilution series were prepared in DMSO via a 3-fold serial dilution from 3 mM to 0.1 μM. […]
(§2) Luminescence readings from the Cell Titer Glo assay were normalized to the DMSO treated cells and analyzed using the GraphPad Prism software with sigmoidal curve fitting to obtain EC50s. The minimum significant ratio (MSR) was determined to evaluate assay reproducibility (Eastwood et al., (2006) J Biomol Screen, 11: 253-261). The overall MSR was determined to be 2.1 and a moving MSR (last six run MSR overtime) has been <2.
(§3) The compound of Example 40 was tested for its impact on proliferation of a panel of cancer cell line types (with specific cell lines tested) as set out in (Table 2). […] Cell proliferation data were analyzed as described above in the MX-1 proliferation assay to obtain the EC50 for the compounds reported in Table 2.

[2] = system: H1975; assay: Proliferation panel assay, H1975; type: cell-based; details: Homo sapiens, NCI-H1975, 120 h; NSCLC, H1975, 5 days; read-out: Cellular Proliferation EC50
Method: as §1, §2, §3

[3] = system: HPAC; assay: Proliferation panel assay, HPAC; type: cell-based; details: Homo sapiens, 120 h, Pancreas, 5 days, read-out: Cellular Proliferation EC50
Method: as §1, §2, §3

[4] = system: MV4-11 human AML xenograft; assay: Xenograft tumor growth inhibition assay, MV4-11; type: in vivo, mice; details: MV4-11 xenograft
Method: The effect of the compound of Example 40 to inhibit the growth of Ramos, OPM-2, MX-1, MV4-11, and HT1080 xenograft tumors was evaluated. Briefly, 0.5×10^6 human cancer cells (HT1080), 1×10^6 human cancer cells (Ramos), 5×10^6 human cancer cells (OPM-2, MV4-11) or 1:10 tumor brie (MX-1) (in S-MEM (MEM, Suspension, no Calcium, no Glutamine)) (Life Technologies Corporation) were inoculated subcutaneously into the right hind flank of female SCID or SCID-beige (MV4-11, HT1080) mice (Charles Rivers Labs) on study day 0. Compound was formulated in 2% EtOH, 5% Tween-80, 20% PEG-400, 73% HPMC (Ramos, OPM-2 and MX-1) or 5% DMSO, 5% EtOH, 30% PEG400, 60% Phosal 53 (MV4-11, HT1080). Administration of compound was initiated at the time of size match on day 8 (HT1080), day 17 (MX-1), or day 18 (Ramos, MV4-11, OPM-2). The tumors were measured by a pair of calipers twice a week starting at the time of size match and tumor volumes were calculated according to the formula V=L×W^2/2 (V: volume, mm^3; L: length, mm. W: width, m) Tumor volume was measured for the duration of the experiment until the mean tumor volume in each group reached an endpoint of >1000 mm^3.

[5] = system: MDAMB231; assay: Proliferation panel assay, MDAMB231; type: cell-based; details: Homo sapiens, MDA-MB-231, 120 h; Breast, MDAMB231, 5 days; read-out: Cellular Proliferation EC50
Method: as §1, §2, §3

[6] = biological target: BRD4 (BDII_E352-M457) (Homo sapiens (Human), UniProt O60885); assay: TR-FRET bromodomain binding assay, BRD4 second bromodomain; details: His-tagged BD2, 30 nM Alexa647 probe
How it was run: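 His-tagged BRD4 BD1 or BD2 (8 nM) with Eu-anti-His antibody (1 nM) and Alexa647-labelled BET-inhibitor probe (100 nM BDI, 30 nM BDII); 50 μM−0.85 nM compound, 2% DMSO, phosphate buffer pH 6.0, 1 h at room temperature. TR-FRET IC50 by 4-parameter fit, converted to Ki using probe Kd.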

[7] = system: breast cancer cell line MX-1; assay: MX-1 cell line proliferation assay (3-day, Cell Titer Glo); type: cell-based, human; details: Homo sapiens, MX1, MX-1 cells, 72 hours, read-out: Cellular proliferation: EC50
Method: The impact of compounds of the Examples on cancer cell proliferation was determined using the breast cancer cell line MX-1 (ATCC) in a 3-day proliferation assay. MX-1 cells were maintained in RPMI supplemented with 10% FBS at 37 C.° and an atmosphere of 5% CO2. For compound testing, MX-1 cells were plated in 96-well black bottom plates at a density of 5000 cells/well in 90 μl of culture media and incubated at 37° overnight to allow cell adhesion and spreading. Compound dilution series were prepared in DMSO via a 3-fold serial dilution from 3 mM to 0.1 μM. The DMSO dilution series were then diluted 1:100 in phosphate buffered saline, and 10 μL of the resulted solution were added to the appropriate wells of the MX-1 cell plate. The final compound concentrations in the wells were 3, 1, 0.3, 0.1, 0.03, 0.01, 0.003, 0.001, 0.0003 and 0.0001 μM.
as §2, with “253-261).” for “253-261). The overall MSR was determined to be 2.1 and a moving MSR (last six run MSR overtime) has been <2.”

## Cc1[nH]c(-c2cc(NS(C)(=O)=O)ccc2Oc2ccccc2)c2c1C(=O)CCC2 [Example 40, N-[3-(3-methyl-4-oxo-4,5,6,7-tetrahydro-2H-isoindol-1-yl)-4-phenoxyphenyl]methanesulfonamide]
[1]
  EC50: 168 nM
[2]
  EC50: 180 nM
[3]
  EC50: 290 nM
[4]; 25 mg/kg/day PO, BID x 14
  mortality: ^b10% mortality.
[4]; 25 mg/kg/day PO, BID x 14, based on day 31
  % TGI (tumor growth inhibition): 14^b %
[4]; 50 mg/kg/day PO, BID x 14
  mortality: ^c30% mortality
[4]; 50 mg/kg/day PO, BID x 14, based on day 31
  % TGI (tumor growth inhibition): 42^c** %
[4]; 100 mg/kg/day PO, BID 5 on, 3 off x 2
  mortality: ^d40% mortality
[4]; 100 mg/kg/day PO, BID 5 on, 3 off x 2, based on day 31
  % TGI (tumor growth inhibition): 67^d** %
[5]
  EC50: 310 nM
[6]
  Ki: 43 nM
[7]
  EC50: 160 nM
